PMC9781983, “Identification of Darunavir Derivatives for Inhibition of SARS-CoV-2 3CL^pro” (International Journal of Molecular Sciences, 2022)
Like-named read-outs stand apart in the source and are kept apart here.

Experiments:
SARS-CoV-2 3CL^pro [1] = target: T1, SARS-CoV-2 3CL^pro (Severe acute respiratory syndrome coronavirus 2, UniProt P0DTD1); assay: biochemical; assay type: biochemical; settings: for IC50: FRET dose-response, 100 nM 3CL^pro pre-incubated 30 min at 30 °C, 10 µM substrate, read-out: IC50 against SARS-CoV-2 3CL^pro
rats = settings: taken orally, ref [7],[34]; cited from earlier work
[2] = target: Norovirus RNA-dependent RNA polymerase (RdRp) (Norovirus, UniProt Q83883); assay: BLI binding assay, non-specific binding control; settings: Figure S2
SARS-CoV-2 3CL^pro [3] = target: T1, SARS-CoV-2 3CL^pro; assay: cell-based
in vitro = settings: human
Cathepsin L = Cathepsin L (Homo sapiens, UniProt P07711); assay: Counter screen against Cathepsin L; assay type: biochemical; settings: dose-response, Figure S1
SARS-CoV-2 3CL^pro [4] = target: T1, SARS-CoV-2 3CL^pro; assay: Bio-layer interferometry (BLI) kinetic binding assay; settings: for Binding to SARS-CoV-2 3CL^pro: 6.25 to 100 or 200 µM; for koff: read-out: Kdis
[5] = single concentration of 20 μM, normalized to DMSO control

Cathepsin L, sequence (P07711 114-333): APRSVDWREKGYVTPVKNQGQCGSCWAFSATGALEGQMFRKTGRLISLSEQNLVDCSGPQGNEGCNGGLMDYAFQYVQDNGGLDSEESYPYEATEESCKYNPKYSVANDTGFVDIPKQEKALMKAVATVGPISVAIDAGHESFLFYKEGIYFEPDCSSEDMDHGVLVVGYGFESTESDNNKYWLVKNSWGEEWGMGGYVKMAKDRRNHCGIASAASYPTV
Norovirus RNA-dependent RNA polymerase (RdRp), sequence (Q83883 1282-1789): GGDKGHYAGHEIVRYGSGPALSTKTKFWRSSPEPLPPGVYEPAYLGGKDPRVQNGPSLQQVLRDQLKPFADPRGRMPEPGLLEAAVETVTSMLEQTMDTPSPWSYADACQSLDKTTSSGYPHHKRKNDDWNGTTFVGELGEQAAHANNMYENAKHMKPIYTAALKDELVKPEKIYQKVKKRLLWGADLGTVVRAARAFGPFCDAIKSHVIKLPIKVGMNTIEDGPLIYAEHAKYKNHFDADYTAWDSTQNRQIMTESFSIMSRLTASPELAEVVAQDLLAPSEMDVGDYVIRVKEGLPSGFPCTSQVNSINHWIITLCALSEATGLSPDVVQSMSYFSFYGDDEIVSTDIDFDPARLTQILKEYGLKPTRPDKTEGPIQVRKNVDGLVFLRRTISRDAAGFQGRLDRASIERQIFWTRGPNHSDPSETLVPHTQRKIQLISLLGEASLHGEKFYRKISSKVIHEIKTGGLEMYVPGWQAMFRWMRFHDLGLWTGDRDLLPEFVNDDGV

Row | SMILES | Hill slope (SARS-CoV-2 3CL^pro [1]) | Inhibition of 3CL^pro activity in primary screening (SARS-CoV-2 3CL^pro [1]) | median lethal dose (rats) [mg/kg] | Hill slope (SARS-CoV-2 3CL^pro [1]; FRET dose-response curve) | IC50 (SARS-CoV-2 3CL^pro [1]) [µM] | Inhibition of 3CL^pro activity in primary screening (SARS-CoV-2 3CL^pro [1]; [5]) | KD with Norovirus RdRp [2] | EC50 (SARS-CoV-2 3CL^pro [3]) [µM] | CC50 (in vitro) [µM] | Inhibitory effect against Cathepsin L (Cathepsin L) | Binding to SARS-CoV-2 3CL^pro (SARS-CoV-2 3CL^pro [4]; BLI) | Kd (SARS-CoV-2 3CL^pro [4]; ForteBio Octet System) [µM] | kon (SARS-CoV-2 3CL^pro [4]; ForteBio Octet System) [M⁻¹ s⁻¹] | koff (SARS-CoV-2 3CL^pro [4]; ForteBio Octet System) [s⁻¹] | Kd (SARS-CoV-2 3CL^pro [4]; BLI) [µM]
1 | O=c1c2ccccc2[se]n1-c1ccccc1 [Ebselen, ebselen, reference compound] | 1.91±0.22 | strongly inhibit | > 4600 |  |  |  |  |  |  |  |  |  |  |  | 
2 | COc1ccc(S(=O)(=O)N(CC(C)O)CC(O)C(Cc2ccccc2)NC(=O)c2ccc(O)c(O)c2)cc1 (stereo not drawn) [29#] |  |  |  | 1.78±0.32 | 6.3 | significant inhibition | either a large KD value or a not-detected KD value | 8.9 | 24.8 | very limited inhibitory effect | dose-dependent manner | 52.7 | 374 | 0.0197 | 
3 | COc1ccc(S(=O)(=O)N(CC(C)O)CC(O)C(Cc2ccccc2)NC(=O)C2(O)CC(O)C(O)C(OC(=O)C=Cc3ccc(O)c(O)c3)C2)cc1 (stereo not drawn) [50#] |  |  |  | 1.93±0.30 | 3.5 | significant inhibition | either a large KD value or a not-detected KD value | 13.5 | 49 | very limited inhibitory effect | dose-dependent manner | 62.1 | 455 | 0.0282 | 62
4 | CC(C)CN(C[C@@H](O)[C@H](Cc1ccccc1)NC(=O)O[C@H]1CO[C@H]2OCC[C@H]21)S(=O)(=O)c1ccc(N)cc1 [Darunavir] |  |  |  |  |  | no inhibitory activity |  |  |  |  |  |  |  |  | 
